We go through ten molecules from PubChem BioAssay AID2060618 (Molecular Pharmacology Branch, DTP, NCI, 2025).

The experiment has as its system 454973-116-R2-J3-PDC spheroids, percent test/control viability. Description: Anticancer human tumor 454973-116-R2-J3-PDC patient-derived pancreatic carcinoma cell line growth inhibition [CLK]. Conditions: spheroids with HUVEC and MSC; for viability, T/C: stronger effect = lower value; for pIC50: curve of compound. The source says:
A high-throughput screen of multi-cell type tumor spheroids was designed to identify active combinations of […] and targeted small molecules. Complex spheroids include a stromal component modeled by human endothelial cells (HUVEC) and fibroblasts modeled by human mesenchymal stem cells (MSCs). The concentration ranges selected for each drug and investigational agent were based upon clinically achievable concentrations if the clinical Cmax of the agent was known.
Compounds. The drugs and investigational agents: cirtuvivint (SM08502; NSC835563), CC-671 (NSC850746), vemurafenib (NSC761431), tapotoclax (NSC804041), sotorasib (NSC818433), adagrasib (NSC831453), MRTX-1133 (NSC836407), BAY2416964 (NSC825713), copanlisib (NSC816437), inavolisib (NSC800729), abemaciclib (NSC768073), osimertinib (NSC779217), entinostat (NSC756642), eltanexor (KPT-8602, NSC794443), venetoclax (NSC766270), ceralasertib (NSC777638), bortezomib (NSC756655), olaparib (NSC753686), talazoparib (NSC767125), alisertib (NSC759677), peposertib (NSC802822), gemcitabine (NSC613327), 5-fluorouracil (NSC19893), SN-38 (NSC673596), oxaliplatin (NSC266046), paclitaxel (NSC125973), and doxorubicin (NSC123127), were obtained from the National Cancer Institute (NCI) Developmental Therapeutics Program Chemical Repository. The FDA-approved anticancer drug set is available from the Developmental Therapeutics Program at https://dtp.cancer.gov/organization/dscb/obtaining/available plates.htm. […] The stock solutions were prepared in dimethyl sulfoxide (DMSO, Sigma-Aldrich, St. Louis, MO, cat. D2650), except for the platinum complexes which were prepared in saline (Quality Biological, Gaithersburg, MD, cat. 114-055-101), at 800-fold the tested concentration and stored at -70 degrees C prior to their use. All drugs and investigational agents were tested over a range starting from a high concentration at or near the clinical Cmax and decreasing in half-log increments. If the clinical Cmax for an agent had not been determined, the highest concentration tested was 10 microM.
Cell Culture. All cells were maintained in an incubator at 37 degrees C and 5% CO2 with 95% humidity. The PDC lines were cultured according to standard operating procedures established by the NCI PDMR. Briefly, all PDCs were thawed and cultured in Matrigel-coated flasks prepared with a working solution of 1X Ham's F-12 nutrient mix, without supplementation (Invitrogen, Waltham, MA, cat. 11765054), 100 U/mL penicillin-streptomycin (Invitrogen, cat. 15140122), and 2.5% Matrigel (Corning Inc., Corning, NY, cat. 354248) for the first three passages. The 947758-054-R-J2-PDC line was cultured in 6B/Colon 1A media, which includes advanced DMEM/F-12 (Thermo Fisher Scientific, cat. 12634028), 10 mM HEPES (Thermo Fisher Scientific, cat. 15630080), 1X GlutaMAX supplement (Thermo Fisher Scientific, cat. 35050061), 0.1 mg/mL primocin (InvivoGen, cat. ant-pm-2), 10% defined fetal bovine serum, heat inactivated (HyClone Laboratories Inc., cat. SH30070.03HI), 1.25 mM N-Acetyl-L-cysteine (Sigma-Aldrich, cat. A9165), 10 mM nicotinamide (Sigma-Aldrich, cat. N0636), 1X B-27 supplement (Thermo Fisher Scientific, cat. 17504044), 1X N-2 supplement (Thermo Fisher Scientific, cat. 17502048), and 10 microM Y-27632 dihydrochloride (Tocris Bioscience, cat. 1254). The 876862-298-R-J1-PDC was cultured in 6E media, which includes all 6B/Colon 1A media components plus 50% L-WRN conditioned media (ATCC, cat. CRL-3276), 50 ng/mL recombinant human EGF recombinant protein (hEGF; Thermo Fisher Scientific, cat. PHG0311), 10 ng/mL recombinant human fibroblast growth factor 10 (hGFG-10; PeproTech, cat. 100-26), 1 ng/mL recombinant human fibroblast growth factor 2 (hFGF-2; PeproTech, cat. 100-18B), and 1 µM prostaglandin E2 (PGE2; Tocris, cat. 2296). The 227483-062-R1-J1-PDC line was cultured in Panc media, containing all 6E components except hFGF-2, with the addition of 500 nM SB-431542 (Selleckchem, cat. S1067) and 10 nM gastrin (Tocris, cat. 3006). […]

pIC50: −log10 of the molar value. Where “and” joins values, the source holds several entries; their conditions need not be identical. Equal values may be shown once.
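Further: spheroids exposed to compounds for 7 days before readout.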

Take `CC(=O)O[C@H]1C(=O)[C@@]2(C)[C@H]([C@H](OC(=O)c3ccccc3)[C@]3(O)C[C@H](OC(=O)[C@H](O)[C@@H](NC(=O)c4ccccc4)c4ccccc4)C(C)=C1C3(C)C)[C@]1(OC(C)=O)CO[C@@H]1C[C@@H]2O`: the pIC50 is over 7.50. For the same molecule, the viability, T/C (compound 0.0316 µM) is 5.98% and 7.51%. In addition, the viability, T/C (compound 0.1 µM) is 6.42% and 5.84%. The viability, T/C (compound 0.316 µM) is 4.95% and 6.85%. The viability, T/C (compound 1 µM) was 5.57% and 6.35%. Where the note is “compound 3.16 µM”, the viability, T/C was 7.38% and 11.4%. For the same molecule, where the note is “compound 10 µM”, the viability, T/C was 16% and 15.4%.

With `CC(Nc1ccc2c(c1)OCCn1cc(N3C(=O)OCC3C(F)F)nc1-2)C(N)=O` (stereo not given), the pIC50 was < 5.00 and 5.08. Further, the viability, T/C (compound 0.0316 µM) is 98.3% and 101%. The viability, T/C (compound 0.1 µM) was 95.5% and 92.3%. Under “compound 0.316 µM”, the viability, T/C was 99.5% and 84%. Besides, where the note is “compound 1 µM”, the viability, T/C was 84.7% and 86.1%. In addition, the viability, T/C (compound 3.16 µM) was 78.1% and 71%. Moreover, the viability, T/C (compound 10 µM) is 54.1% and 45%.

Take `CC1(C)CCC(CN2CCN(c3ccc(C(=O)NS(=O)(=O)c4ccc(NCC5CCOCC5)c([N+](=O)[O-])c4)c(Oc4cnc5[nH]ccc5c4)c3)CC2)=C(c2ccc(Cl)cc2)C1`: the pIC50 was 5.15 and 5.18. In addition, the viability, T/C (compound 0.0316 µM) is 101% and 99.6%. Also, the viability, T/C (compound 0.1 µM) was 102% and 95.9%. Further, for the setting “compound 0.316 µM”, the viability, T/C was 113% and 106%. For the same molecule, the viability, T/C (compound 1 µM) was 106% and 102%. In addition, the viability, T/C (compound 3.16 µM) was 119% and 111%. For the same molecule, the viability, T/C (compound 10 µM) was 25.8% and 21.3%.

Turning to `CC1COCCN1c1cc(C2(S(C)(=N)=O)CC2)nc(-c2ccnc3[nH]ccc23)n1` (stereo not given), the pIC50 is 5.11 and 5.13. Also, the viability, T/C (compound 0.0316 µM) is 109% and 101%. The viability, T/C (compound 0.1 µM) is 109% and 97.7%. For the same molecule, the viability, T/C (compound 0.316 µM) is 104% and 102%. Besides, the viability, T/C (compound 1 µM) is 101% and 98%. Further, where the note is “compound 3.16 µM”, the viability, T/C is 91.1% and 87.8%. Further, the viability, T/C (compound 10 µM) is 38.4% and 36.1%.

Turning to `COc1ccc([C@@H](O)c2cc(-c3ncnc4cc(N5CCOCC5)ccc34)c(F)cc2Cl)nn1`, the negative-log IC50 (pIC50) is under 5.00. Moreover, where the note is “compound 0.0316 µM”, the viability, T/C was 105% and 114%. Moreover, the viability, T/C (compound 0.1 µM) is 108% and 102%. Further, under “compound 0.316 µM”, the viability, T/C was 95.4% and 102%. Further, the viability, T/C (compound 1 µM) is 92% and 89.2%. Moreover, the viability, T/C (compound 3.16 µM) is 82.7% and 77.8%. Further, the viability, T/C (compound 10 µM) was 54.3% and 51%.

As to `COc1cccc2c1C(=O)c1c(O)c3c(c(O)c1C2=O)CC(O)(C(=O)CO)CC3OC1CC(N)C(O)C(C)O1` (stereo not given), the pIC50 is 7.37 and > 7.50. Besides, the viability, T/C (compound 0.0316 µM) was 58.7% and 49.7%. Besides, the viability, T/C (compound 0.1 µM) was 23% and 19.8%. Further, the viability, T/C (compound 0.316 µM) is 21.2% and 19.8%. The viability, T/C (compound 1 µM) was 6.76% and 3.88%. Also, the viability, T/C (compound 3.16 µM) is 0.39% and 1.8%. In addition, the viability, T/C (compound 10 µM) was 2.07% and 3.53%.

For the molecule `Nc1ccccc1NC(=O)c1ccc(CNC(=O)OCc2cccnc2)cc1`, the pIC50 is 5.74 and 5.77. Moreover, where the note is “compound 0.0316 µM”, the viability, T/C is 103% and 100%. Further, for the setting “compound 0.1 µM”, the viability, T/C is 96.6% and 102%. Also, the viability, T/C (compound 0.316 µM) was 90.7% and 89.4%. In addition, the viability, T/C (compound 1 µM) was 71.8% and 70.5%. Also, for the setting “compound 3.16 µM”, the viability, T/C was 29.7% and 26.2%. Further, the viability, T/C (compound 10 µM) is 9.11% and 5.25%.

Regarding `Nc1ccn(C2OC(CO)C(O)C2(F)F)c(=O)n1` (stereo not given), the pIC50 was over 7.50. In addition, where the note is “compound 0.0316 µM”, the viability, T/C was 11% and 7.61%. Moreover, the viability, T/C (compound 0.1 µM) was 8.58% and 9.53%. For the setting “compound 0.316 µM”, the viability, T/C is 8.12% and 7.99%. Besides, the viability, T/C (compound 1 µM) is 10.4% and 8.26%. In addition, the viability, T/C (compound 3.16 µM) is 9.96% and 7.45%. The viability, T/C (compound 10 µM) is 9.46% and 9.19%.

`O=C(c1cc(Cc2n[nH]c(=O)c3ccccc23)ccc1F)N1CCN(C(=O)C2CC2)CC1`: the pIC50 was under 5.00. The viability, T/C (compound 0.0316 µM) is 115% and 104%. Further, under “compound 0.1 µM”, the viability, T/C is 95.9% and 101%. Moreover, the viability, T/C (compound 0.316 µM) was 99.6% and 101%. Moreover, the viability, T/C (compound 1 µM) is 101% and 99.2%. Besides, the viability, T/C (compound 3.16 µM) was 94.5% and 98.7%. For the same molecule, under “compound 10 µM”, the viability, T/C was 71.1% and 77.5%.

As to `O=c1[nH]cc(F)c(=O)[nH]1`, the pIC50 was 5.77 and 6.06. Moreover, where the note is “compound 0.0316 µM”, the viability, T/C was 115% and 108%. Further, the viability, T/C (compound 0.1 µM) was 98.1% and 101%. Besides, the viability, T/C (compound 0.316 µM) was 95.8% and 103%. In addition, under “compound 1 µM”, the viability, T/C is 64.2% and 43.4%. In addition, for the setting “compound 3.16 µM”, the viability, T/C was 30.3% and 31.5%. The viability, T/C (compound 10 µM) was 35.5% and 36.6%.

As usually defined, the viability, T/C is the ratio of treated to control. The pIC50 is the negative decadic logarithm of the IC50, by convention in mol/L.
